From article PMC6150245 (Molecules : A Journal of Synthetic Chemistry and Natural …, 2017)
Converted amounts (≈) assume the structure as drawn. Read-outs that look alike come from different tables or passages of the source. Bridge positions count the residues as written; N and C are the ends. Peptide text beside a SMILES is read from it. I, II: the chains in the order shown.

Columns and labels:
E. coli ATCC25922 = assay: MIC, microdilution in MH broth (initial screening); format: cell-based, Escherichia coli; conditions: 24 h, 37 °C, resazurin, triplicate
Description: (§1) The minimum inhibitory concentrations (MIC) were determined following the Clinical and Laboratory Standards Institute (CLSI) recommendations. Antibacterial and antifungal activity tests were performed using the microdilution method. For initial screening, peptides were tested against C. albicans ATCC18804, E. coli ATCC25922, and S. aureus ATCC25923. Briefly, bacterial cells in MH broth (80 μL aliquots containing 1.5 × 10^7 CFU) were incubated with synthetic peptides (serial dilution from 512 to 1 μM) dissolved in Milli-Q water. After incubation for 24 h at 37 °C, the microtiter plates were analyzed visually by addition of resazurin. For the antifungal assays, the culture medium was RPMI 1640 buffered with L-glutamine (pH 7.2), 0.165 M morpholinepropanesulfonic acid (MOPS), and 2% glucose. Cell suspensions (final concentration of 1 × 10^3–2.5 × 10^3 CFU/mL) were inoculated on a microdilution plate previously prepared with serially diluted synthetic peptides (128–1 μM). The plates were incubated for 48 h at 37 °C. Each assay was performed in triplicates. Additionally, amphotericin B and fluconazole were used as the control drugs. MIC was defined as the lowest concentration of peptide at which no growth was detected.

S. aureus ATCC25923 [1] = assay: MIC, microdilution in MH broth (initial screening); format: cell-based, Staphylococcus aureus; conditions: 24 h, 37 °C, resazurin, triplicate
Description: as §1

S. epidermidis ATCC35984 = format: cell-based, Staphylococcus epidermidis; conditions: for MIC: S. epidermidis ATCC35984, CAMHB, 24 h, 37 °C, duplicate; for MBC: S. epidermidis ATCC35984, sub-culture on MH agar, 99.9% death
Description: (§2) After confirming antibacterial activity, the peptides were tested against gram-positive and gram-negative multidrug-resistant bacteria, including strains of clinical origin. The peptides, p-BthTX-I, des-Lys^12/(p-BthTX-I)2, and Lys^13-(p-BthTX-I)2 were serially diluted (512–1 μM) in cation-adjusted BBL MH II broth (CAMHB; Becton, Dickson and Co., Sparks, MD, USA) as described by CLSI. Bacteria at 5.0 × 10^5 CFU/mL were added to the media and incubated for 24 h at 37 °C. […] Assays were performed in duplicates, and sterile broth was used as the negative control. To determine the minimal bactericidal concentration (MBC), 100 µL from each well of the MIC assay plates that inhibited bacterial growth were sub-cultured onto MH agar (MHA) plates. […] If the ratio of MBC/MIC was >4, the activity of the peptide was considered bacteriostatic, as described previously.

S. aureus ATCC25923 [2] = format: cell-based, Staphylococcus aureus; conditions: for MIC: S. aureus ATCC25923, CAMHB, 24 h, 37 °C, duplicate; for MBC: S. aureus ATCC25923, sub-culture on MH agar, 99.9% death
Description: as §2

S. aureus SA16 = format: cell-based, Staphylococcus aureus; conditions: S. aureus SA16 (MRSA); for MBC: sub-culture on MH agar, 99.9% death
Description: as §2

S. aureus SA33 = format: cell-based, Staphylococcus aureus; conditions: for MBC: S. aureus SA33, sub-culture on MH agar, 99.9% death
Description: as §2

S. aureus SA88 = format: cell-based, Staphylococcus aureus; conditions: for MIC: S. aureus SA88 (MRSA, daptomycin heteroresistant), CAMHB, 24 h, 37 °C, duplicate; for MBC: S. aureus SA88, sub-culture on MH agar, 99.9% death
Description: as §2

E. faecium HSJRP8 = format: cell-based, Enterococcus faecium; conditions: for MIC: E. faecium HSJRP8 (daptomycin resistant), CAMHB, 24 h, 37 °C, duplicate; for MBC: E. faecium HSJRP8, sub-culture on MH agar, 99.9% death
Description: as §2

E. faecium VRE16 = format: cell-based, Enterococcus faecium; conditions: for MIC: E. faecium VRE16 (vancomycin resistant), CAMHB, 24 h, 37 °C, duplicate; for MBC: E. faecium VRE16, sub-culture on MH agar, 99.9% death
Description: as §2

[3] = tested on: K. pneumoniae ATCCBAA1705; format: cell-based, Klebsiella pneumoniae; conditions: for MIC: K. pneumoniae ATCCBAA1705 (KPC), CAMHB, 24 h, 37 °C, duplicate; for MBC: K. pneumoniae ATCCBAA1705, sub-culture on MH agar, 99.9% death
Description: as §2

K. pneumoniae NDM-1 = format: cell-based, Klebsiella pneumoniae; conditions: for MIC: K. pneumoniae NDM-1, CAMHB, 24 h, 37 °C; for MBC: K. pneumoniae NDM-1, sub-culture on MH agar, 99.9% death
Description: as §2

E. coli ATCC35218 = format: cell-based, Escherichia coli; conditions: for MIC: E. coli ATCC35218, CAMHB, 24 h, 37 °C, duplicate; for MBC: E. coli ATCC35218, sub-culture on MH agar, 99.9% death
Description: as §2

E. coli CA4 = format: cell-based, Escherichia coli; conditions: for MIC: E. coli CA4 (commensal), CAMHB, 24 h, 37 °C, duplicate; for MBC: E. coli CA4, sub-culture on MH agar, 99.9% death
Description: as §2

Serum stability assay = format: in vitro ADME; conditions: 25% human male serum, 37 °C
Description: Crude peptides were purified by semi-preparative HPLC on a Shimadzu system (Tokyo, Japan) using a C18 reversed phase column (10 × 250 mm, Phenomenex, Torrance, CA, USA). Solvent A contained 0.045% trifluoroacetic acid (TFA) in water. Elution was achieved using a linear gradient (5–35%) of solvent B (0.036% TFA in acetonitrile) for 120 min at 5 mL/min. The purity of the peptides was determined by analytical HPLC on a Shimadzu system using a C18 column (4.6 × 150 mm, Phenomenex, Torrance, CA, USA) with a linear gradient of solvent B (5–95%) for 30 min at 1 mL/min. Liquid chromatography-mass spectrometry (LC/MS) was performed using a C18 column (2.0 × 30 mm, Shimadzu) attached to analytical HPLC and an amaZon ion trap mass spectrometer (Bruker Daltonics) using ESI. Peptides were eluted using a linear gradient of solvent B (5–95%) for 15 min at 0.2 mL/min.
Peptide stability assays were performed in diluted serum as previously described with minor modifications. First, 2 mL of 25% human male serum was centrifuged at 3000× g for 10 min; the supernatant was collected and incubated for 15 min at 37 °C. Next, peptides were added to the serum to a final concentration of 100 µM. Then, 200 µL of samples were collected at different time points during the assays, which were performed in duplicate. Analyses were performed by LC/MS and analytical HPLC, as described above.

## CC(C)C[C@H](NC(=O)[C@H](Cc1c[nH]cn1)NC(=O)[C@H](Cc1ccc(O)cc1)NC(=O)[C@H](CCCNC(=N)N)NC(=O)[C@H](Cc1ccc(O)cc1)NC(=O)[C@H](CCCCN)NC(=O)[C@@H](N)CCCCN)C(=O)N[C@@H](CCCCN)C(=O)N1CCC[C@H]1C(=O)N[C@@H](Cc1ccccc1)C(=O)N[C@@H](CSSC[C@H](NC(=O)[C@H](Cc1ccccc1)NC(=O)[C@@H]1CCCN1C(=O)[C@H](CCCCN)NC(=O)[C@H](CC(C)C)NC(=O)[C@H](Cc1c[nH]cn1)NC(=O)[C@H](Cc1ccc(O)cc1)NC(=O)[C@H](CCCNC(=N)N)NC(=O)[C@H](Cc1ccc(O)cc1)NC(=O)[C@H](CCCCN)NC(=O)[C@@H](N)CCCCN)C(=O)N[C@@H](CCCCN)C(=O)N[C@@H](CCCCN)C(=O)O)C(=O)N[C@@H](CCCCN)C(=O)N[C@@H](CCCCN)C(=O)O [(p-BthTX-I)2]
E. coli ATCC25922
  MIC: 4 µM (≈ 13.9 µg/mL)
S. aureus ATCC25923 [1]
  MIC: 64 µM (≈ 222 µg/mL)
S. epidermidis ATCC35984
  MIC: 16 µM (≈ 55.6 µg/mL)
  MBC: 64 µM (≈ 222 µg/mL)
S. aureus ATCC25923 [2]
  MIC: 512 µM (≈ 1780 µg/mL)
  MBC: 512 µM (≈ 1780 µg/mL)
S. aureus SA16
  MBC: 512 µM (≈ 1780 µg/mL)
S. aureus SA33
  MBC: 512 µM (≈ 1780 µg/mL)
S. aureus SA88
  MIC: 256 µM (≈ 890 µg/mL)
  MBC: 256 µM (≈ 890 µg/mL)
E. faecium HSJRP8
  MIC: 8 µM (≈ 27.8 µg/mL)
  MBC: >512 µM
E. faecium VRE16
  MIC: 32 µM (≈ 111 µg/mL)
  MBC: >512 µM
[3]
  MIC: 256 µM (≈ 890 µg/mL)
  MBC: 512 µM (≈ 1780 µg/mL)
K. pneumoniae NDM-1
  MIC: 256 µM (≈ 890 µg/mL)
  MBC: 512 µM (≈ 1780 µg/mL)
E. coli ATCC35218
  MIC: 512 µM (≈ 1780 µg/mL)
  MBC: 512 µM (≈ 1780 µg/mL)
E. coli CA4
  MIC: 256 µM (≈ 890 µg/mL)
  MBC: 512 µM (≈ 1780 µg/mL)
Serum stability assay; peptide 100 µM, analytical HPLC (C18) and LC/MS, duplicate
  Incubation time after which the peptide was completely degraded in human serum: 30 min

## CC(C)C[C@H](NC(=O)[C@H](Cc1c[nH]cn1)NC(=O)[C@H](Cc1ccc(O)cc1)NC(=O)[C@H](CCCNC(=N)N)NC(=O)[C@H](Cc1ccc(O)cc1)NC(=O)[C@H](CCCCN)NC(=O)[C@@H](N)CCCCN)C(=O)N[C@@H](CCCCN)C(=O)N1CCC[C@H]1C(=O)N[C@@H](Cc1ccccc1)C(=O)N[C@@H](CSSC[C@H](NC(=O)[C@H](Cc1ccccc1)NC(=O)[C@@H]1CCCN1C(=O)[C@H](CCCCN)NC(=O)[C@H](CC(C)C)NC(=O)[C@H](Cc1c[nH]cn1)NC(=O)[C@H](Cc1ccc(O)cc1)NC(=O)[C@H](CCCNC(=N)N)NC(=O)[C@H](Cc1ccc(O)cc1)NC(=O)[C@H](CCCCN)NC(=O)[C@@H](N)CCCCN)C(=O)O)C(=O)O [des-Lys^12/Lys^13-(p-BthTX-I)2] (I: H-KKYRYHLKPFC-OH / II: H-KKYRYHLKPFC-OH; disulfide I:11-II:11)
E. coli ATCC25922
  MIC: 16 µM (≈ 47.4 µg/mL)
S. aureus ATCC25923 [1]
  MIC: 128 µM (≈ 379 µg/mL)
S. epidermidis ATCC35984
  MIC: 32 µM (≈ 94.8 µg/mL)
  MBC: 32 µM (≈ 94.8 µg/mL)
S. aureus ATCC25923 [2]
  MIC: 128 µM (≈ 379 µg/mL)
  MBC: 256 µM (≈ 759 µg/mL)
S. aureus SA16; CAMHB, 24 h, 37 °C
  MIC: 128 µM (≈ 379 µg/mL)
S. aureus SA16
  MBC: 128 µM (≈ 379 µg/mL)
S. aureus SA33; S. aureus SA33 (MRSA, tigecycline resistant), CAMHB, 24 h, 37 °C
  MIC: 128 µM (≈ 379 µg/mL)
S. aureus SA33
  MBC: 256 µM (≈ 759 µg/mL)
S. aureus SA88
  MIC: 256 µM (≈ 759 µg/mL)
  MBC: 512 µM (≈ 1520 µg/mL)
E. faecium HSJRP8
  MIC: 8 µM (≈ 23.7 µg/mL)
  MBC: 32 µM (≈ 94.8 µg/mL)
E. faecium VRE16
  MIC: 16 µM (≈ 47.4 µg/mL)
  MBC: 64 µM (≈ 190 µg/mL)
[3]
  MIC: 32 µM (≈ 94.8 µg/mL)
  MBC: 64 µM (≈ 190 µg/mL)
K. pneumoniae NDM-1
  MIC: 256 µM (≈ 759 µg/mL)
  MBC: 512 µM (≈ 1520 µg/mL)
E. coli ATCC35218
  MIC: 64 µM (≈ 190 µg/mL)
  MBC: 256 µM (≈ 759 µg/mL)
E. coli CA4
  MIC: 64 µM (≈ 190 µg/mL)
  MBC: 128 µM (≈ 379 µg/mL)
Serum stability assay; mass spectrometry, data not shown
  Incubation time in human serum after which further degradation products were observed: 30 h
Serum stability assay; product formed from (p-BthTX-I)2 100 µM, LC/MS and HPLC
  Incubation time in human serum after which the peptide remained intact (stable): 24 h
